In data set [1] the test system is thrombus formation in whole blood. As to the kind of experiment: T-TAS AR chip, rivaroxaban-anticoagulated whole blood. Particulars: 9 uM dose (a pharmacological dose). In kind it is cell-based, human. On the procedure: Rivaroxaban (sometimes herein called Riv) dose-response in whole blood was measured using T-TASR. An AR chip (Collagen+TF) was used. T-TAS® assays were performed according to Example 3. The donor platelets were used at 307 k/μL.
Thrombosomes were prepared consistent with the procedures described in U.S. Pat. No. 8,486,617 (such as, e.g., Examples 1-5) and U.S. Pat. No. 8,097,403 (such as, e.g., Examples 1-3), and rehydrated by addition of sterile water. T-TAS® assays were run according to Example 3 using 3 μM rivaroxaban and different concentrations of thrombosomes (FIG. 10A, Table 8). The ‘No Riv’ vertical line indicates the approximate occlusion time of a sample with no added rivaroxaban.

For data set [2] the following is noted: cited from earlier work.
In data set [3] the test system is occlusion of Platelet Rich Plasma (PRP).
Method: The T-TAS® instrument was prepared for use according to the manufacturer's instructions. AR Chips (Diapharma Cat. #TC0101) and AR Chip Calcium Corn Trypsin Inhibitor (CaCTI; Diapharma Cat. #TR0101) were warmed to room temperature. […] The sample was loaded and run on the T-TAS® according to the manufacturer's instructions.
The effect of cangrelor and ticagrelor on occlusion time of Platelet Rich Plasma (PRP) with and without FDPDs was assessed using the T-TAS® assay. The concentrations of the agents were as follows: cangrelor at 1 μM, ticagrelor at 500 ng/mL, FDPDs at 150 k/μL, and ADP at 2 μM. […] The number of trials per each assay is listed as the “(n=_)” values.
In data set [4] the test system is New Zealand White Rabbits. Nature of the data set: Ear bleed time in clopidogrel-treated rabbits. The format is in vivo, rabbit. Particulars: clopidogrel 23 mg/kg for 5 days, untreated 87.1+/−18.2. Here is the method:
Rabbits were treated with clopidogrel at 23 mg/kg for 5 days. The rabbits were anesthetized, the ear was bled and time to clot recorded. Animals were treated, injected into a vein or artery, with saline or 1.6×10^9/kg of human FDPDs, at the same time the ear was bled, and the ear bleed trial commenced. The time from ear bleed to stop bleeding was recorded by visual inspection.

In a further data set the test system is NOD-SCID mice. As to the kind of experiment: Tail snip bleeding time in clopidogrel-treated mice. The format is in vivo, mouse. The following applies: clopidogrel 5 mg/kg for 3 days, untreated 758.6+/−623.4. Here is the method: Mice were treated with clopidogrel at 5 mg/kg for 3 days. The mice were anesthetized, the tail end was snipped off at 1 mm diameter and submerged in warm saline and time to clot recorded. Animals were syringe injected, into a vein or artery, with saline or 1.6×10^9/kg of FDPDs, at the same time the tail was snipped, and the tail snip trial commenced. The time from tail snip to tail stop bleeding was recorded by visual inspection of cessation of blood loss.

Data set [5] deals with thrombin generation in platelet rich plasma. Nature of the data set: Thrombin generation assay in dabigatran-treated PRP. In kind it is cell-based, human. Particulars: dabigatran (100 ng/mL), PRP reagent; 18.89 untreated.
Method: • (1) Open CAT software; set up instrument; and prepare PRP reagent (including Tissue Factor and some phospholipids), calibrator, and fluoro-buffer according to manufacturer guidelines. • (2) Thaw warfarin or control plasma in 37° C. water bath for 5 minutes. • (3) Rehydrate thrombosomes with cell culture grade water for 10 minutes then dilute with Control Buffer to double target concentration. • (4) For each sample, combine 1:1 volumes of Control Buffer with or without thrombosomes and plasma. • (5) Using a multichannel pipette, add 20 μL of PRP reagent to each well. • (6) Add 80 μL of sample per well.
The test system of data set [6] is thrombus formation in GK PPP. Nature of the data set: T-TAS AR chip, George King Platelet Poor Plasma with or without GPRP. The format is biochemical, human. The following applies: GK PPP + 1 mM GPRP (No Tsomes). On the procedure:
In the Total Thrombus-formation Analysis System (T-TAS®, FUJIMORI KOGYO CO., LTD), the sample is forced through collagen-coated microchannels using mineral oil. Changes in pressure are used to assess thrombus formation. The Occlusion Start Time is time it takes to reach Δ10 kPa, and the Occlusion Time=time it takes to each Δ80 kPa using an AR chip (Zacros Item No, TC0101).
The effect of GPRP (1 mM) on occlusion activity was also assayed.

The test system of data set [7] is time to clot in pooled normal plasma. As to the kind of experiment: Activated clotting time (ACT), heparin and protamine in pooled normal plasma. The format is biochemical, human. Particulars: heparin titration. Here is the method:
This experiment assessed how clinical proportions of Heparin and Protamine affect FDPD function. FDPDs were prepared according to the procedure in Example 18. An Activating Clotting Time (ACT) assay was performed to measure time to clot and TGA was performed to measure thrombin generation. An initial Heparin titration run was performed using ACT to find the minimum Heparin dose needed to reach abnormal clot time.
Activated clotting time was measured using pooled normal plasma with heparin (H) and protamine (P) as labeled on the x-axis; ½ P, P, and 3/2 P represent protamine doses of 4, 8, and 12 μg/ml, respectively. FDPDs, (referred to as “Tsomes” in FIG. 33) were added at 10, 25 or 50 K/μl. […] “K” in the legend stands for 10^3 FDPDS. All samples were run in duplicate. N=2. The experiment was repeated on separate days to improve statistical relevance.

The mark [8] stands for this setting: ADP (2 μM) stimulated PRP, cangrelor at 1 μM (n=4) or ticagrelor at 500 ng/mL (n=5), PRP alone 19.5±1.5.

This is an account of results in patent US20250177450A1, “METHODS FOR ADMINISTERING FREEZE-DRIED PLATELET DERIVATIVE COMPOSITIONS TO SUBJECTS TREATED WITH A FACTOR XI INHIBITOR” (Cellphire, Inc., priority 2021, published 2025).

Like-named read-outs stand apart in the source and are kept apart here.

As to `O=C(NC[C@H]1CN(c2ccc(N3CCOCC3=O)cc2)C(=O)O1)c1ccc(Cl)s1` [Rivaroxaban], the “occlusion and thrombus formation” value in data set [1] is on record as “inhibits occlusion but not all thrombus formation”.
Turning to `CC(=O)Oc1ccccc1C(=O)O` [aspirin, Acetylsalicylic acid], the values for the peak concentration in data set [2] (single 500 mg dose IV) and in data set [2] (single 500 mg dose orally) were 500 µM and 44 µM, respectively. Also, in data set [3] (PRP at 30K/μL, aspirin at 500 μM, PRP alone 25:56), the occlusion time was above 30 min.
For the molecule `CSCCNc1nc(SCCC(F)(F)F)nc2c1ncn2[C@@H]1O[C@H](COP(=O)(O)OP(=O)(O)C(Cl)(Cl)P(=O)(O)O)[C@@H](O)[C@H]1O` [cangrelor], the occlusion time in data set [3] (setting [8]) stood at 28.0 ± 3.0 min.
`COC(=O)[C@H](c1ccccc1Cl)N1CCc2sccc2C1` [clopidogrel]: the bleed time came out at 206.8 ± 104.2 s in data set [4] and 1661 ± 257.9 s in the data set on NOD-SCID mice.
The molecule `[H]/N=C(/N)c1ccc(NCc2nc3cc(C(=O)N(CCC(=O)O)c4ccccn4)ccc3n2C)cc1` [dabigatran] returned a Time to peak in data set [5] of 34.67 min.
In the case of `CCCSc1nc(N[C@@H]2C[C@H]2c2ccc(F)c(F)c2)c2nnn([C@@H]3C[C@H](OCCO)[C@@H](O)[C@H]3O)c2n1` [ticagrelor], the occlusion time in data set [3] (setting [8]) came to 28.0 ± 3.0 min.
GPRP: in data set [6], the “Area Under Curve” value is 52.43 and the “Occlusion Speed” value came out at 0 kPa/min.
Consider Heparin, for which, in data set [7], the “minimum Heparin dose needed to reach abnormal clot formation” value is recorded as 0.8 U/mL.
